# According to US20130096107A1, “USE OF AMINODIHYDROTHIAZINES FOR THE TREATMENT OR PREVENTION OF DIABETES” (Hoffmann-La Roche Inc., priority 2009, published 2013):
# Biological target: T1, BACE2 (Homo sapiens, UniProt Q9Y5Z0)
# T1 construct: BACE2 enzyme ectodomain (derived from plasmid “pET17b-T7-hu proBACE2”); T7 tag; made in house; a pET17b plasmid implies E. coli (own knowledge)
# T1 sequence (Q9Y5Z0 63-473 limits assumed): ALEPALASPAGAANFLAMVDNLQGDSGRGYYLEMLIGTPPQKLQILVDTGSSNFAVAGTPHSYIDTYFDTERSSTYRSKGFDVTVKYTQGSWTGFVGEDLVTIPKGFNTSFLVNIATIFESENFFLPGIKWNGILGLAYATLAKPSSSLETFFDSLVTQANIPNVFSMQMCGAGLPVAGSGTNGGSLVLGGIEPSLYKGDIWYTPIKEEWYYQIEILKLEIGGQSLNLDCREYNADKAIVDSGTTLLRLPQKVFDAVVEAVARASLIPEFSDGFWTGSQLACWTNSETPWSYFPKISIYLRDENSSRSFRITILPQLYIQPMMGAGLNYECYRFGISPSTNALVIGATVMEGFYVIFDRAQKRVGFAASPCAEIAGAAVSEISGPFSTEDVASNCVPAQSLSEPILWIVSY
# Assay: Immunofluorescence Resonance Energy Transfer (FRET) assay for BACE2 inhibition
# Format: biochemical
# Details: pH 4.5; 5 μM TMEM27-based FRET peptide substrate
# Experimental: BACE2 enzyme ectodomain (derived from plasmid “pET17b-T7-hu proBACE2”) was prepared as described in Ostermann et al., “Crystal Structure of Human BACE2 in Complex with a Hydroxyethylamine Transition-state Inhibitor”, Journal of Molecular Biology 2006, 355, 249-261. The pro-enzyme was stored at 4° C. at a concentration of 70 μg/ml.
# The FRET assay was performed essentially as described in Grüninger-Leitch et al., Journal of Biological Chemistry (2002) 277(7) 4687-93 (“Substrate and inhibitor profile of BACE (beta-secretase) and comparison with other mammalian aspartic proteases”). In summary, a peptide is designed that is cleaved by the protease. The peptide is labelled with dabcyl at the N terminus and Lucifer Yellow at the C-terminus, such that for an intact peptide the Lucifer Yellow fluorescence is quenched by the dabcyl. When the peptide is cut by BACE2, the quenching is removed and a fluorescent signal is generated.
# The assay was performed as described in Grueninger et al. 2002 at pH 4.5 using a substrate concentration of 5 μM. A FRET peptide based on the TMEM27 sequence was devised. dabcyl—[…]—LucY.
# The assay readout is the initial rate of change of fluorescence intensity giving a relative measure of BACE2 activity. Small values correspond to high inhibition and larger values to low inhibition. […] IC50 values were determined using these assay values generated for a range of inhibitor concentrations and the curve fitting software XLfit (IDBS) using the Sigmoidal Dose-Response Model.
row,Compound,IC50 [µM]
1,"CC[C@@]1(c2cc(NC(=O)c3ncccc3-c3ccccc3)ccc2F)CCSC(N)=N1 [Example 8, 3-Phenyl-pyridine-2-carboxylic acid [3-((S)-2-amino-4-ethyl-5,6-dihydro-4H-[1,3]thiazin-4-yl)-4-fluoro-phenyl]-amide]",4.93
2,"CC[C@@]1(c2cc(NC(=O)c3ncc(Cl)cn3)ccc2F)CCSC(N)=N1 [Example 6, 5-Chloro-pyrimidine-2-carboxylic acid [3-((S)-2-amino-4-ethyl-5,6-dihydro-4H-[1,3]thiazin-4-yl)-4-fluoro-phenyl]-amide]",0.44
3,"CC[C@@]1(c2cc(NC(=O)c3nccc4ccsc34)ccc2F)CCSC(N)=N1 [Example 14, Thieno[2,3-c]pyridine-7-carboxylic acid [3-((S)-2-amino-4-ethyl-5,6-dihydro-4H-[1,3]thiazin-4-yl)-4-fluoro-phenyl]-amide]",3.08
4,"CC[C@@]1(c2cc(NC(=O)c3ccc(C)s3)ccc2F)CCSC(N)=N1 [Example 16, 5-Methyl-thiophene-2-carboxylic acid [3-((S)-2-amino-4-ethyl-5,6-dihydro-4H-[1,3]thiazin-4-yl)-4-fluoro-phenyl]-amide]",0.667
5,"CC[C@@]1(c2cc(NC(=O)c3cc4ccccc4s3)ccc2F)CCSC(N)=N1 [Example 15, Benzo[b]thiophene-2-carboxylic acid [3-((S)-2-amino-4-ethyl-5,6-dihydro-4H-[1,3]thiazin-4-yl)-4-fluoro-phenyl]-amide]",0.916
6,"CC[C@@]1(c2cc(NC(=O)c3ncccc3C(F)(F)F)ccc2F)CCSC(N)=N1 [Example 7, 3-Trifluoromethyl-pyridine-2-carboxylic acid [3-((S)-2-amino-4-ethyl-5,6-dihydro-4H-[1,3]thiazin-4-yl)-4-fluoro-phenyl]-amide]",5.46
7,"CC[C@@]1(c2cc(NC(=O)c3ccc(Cl)cc3)ccc2F)CCSC(N)=N1 [Example 4, N-[3-((S)-2-Amino-4-ethyl-5,6-dihydro-4H-[1,3]thiazin-4-yl)-4-fluoro-phenyl]-4-chloro-benzamide]",2.7
8,"CC[C@@]1(c2cc(NC(=O)c3nc(Cl)ccc3C(F)(F)F)ccc2F)CCSC(N)=N1 [Example 12, 6-Chloro-3-trifluoromethyl-pyridine-2-carboxylic acid [3-((S)-2-amino-4-ethyl-5,6-dihydro-4H-[1,3]thiazin-4-yl)-4-fluoro-phenyl]-amide]",33.5
9,"CC[C@@]1(c2cc(NC(=O)c3nc(Cl)ccc3Cl)ccc2F)CCSC(N)=N1 [Example 11, 3,6-Dichloro-pyridine-2-carboxylic acid [3-((S)-2-amino-4-ethyl-5,6-dihydro-4H-[1,3]thiazin-4-yl)-4-fluoro-phenyl]-amide]",23
10,"CC[C@@]1(c2cc(NC(=O)c3coc(C)n3)ccc2F)CCSC(N)=N1 [Example 18, 2-Methyl-oxazole-4-carboxylic acid [3-((S)-2-amino-4-ethyl-5,6-dihydro-4H-[1,3]thiazin-4-yl)-4-fluoro-phenyl]-amide]",0.475

# Other lines, results leading:
row,IC50 [µM],Compound
1,33.6,"CC[C@@]1(c2cc(NC(=O)c3csc(C)n3)ccc2F)CCSC(N)=N1 [Example 19, 2-Methyl-thiazole-4-carboxylic acid [3-((S)-2-amino-4-ethyl-5,6-dihydro-4H-[1,3]thiazin-4-yl)-4-fluoro-phenyl]-amide]"
2,50.9,"CC[C@@]1(c2cc(NC(=O)c3cccc(C)n3)ccc2F)CCSC(N)=N1 [Example 10, 6-Methyl-pyridine-2-carboxylic acid [3-((S)-2-amino-4-ethyl-5,6-dihydro-4H-[1,3]thiazin-4-yl)-4-fluoro-phenyl]-amide]"
3,1.03,"CC[C@@]1(c2cc(NC(=O)c3ccccn3)ccc2F)CCSC(N)=N1 [Example 3, Pyridine-2-carboxylic acid [3-((S)-2-amino-4-ethyl-5,6-dihydro-4H-[1,3]thiazin-4-yl)-4-fluoro-phenyl]-amide]"
4,1,"CC[C@@]1(c2cc(NC(=O)c3cnc(Cl)cn3)ccc2F)CCSC(N)=N1 [Example 5, 5-Chloro-pyrazine-2-carboxylic acid [3-((S)-2-amino-4-ethyl-5,6-dihydro-4H-[1,3]thiazin-4-yl)-4-fluoro-phenyl]-amide]"
5,0.008,"CC[C@@]1(c2cc(NC(=O)c3ccc(Cl)cn3)ccc2F)CCSC(N)=N1 [Example 2, 5-Chloro-pyridine-2-carboxylic acid [3-((S)-2-amino-4-ethyl-5,6-dihydro-4H-[1,3]thiazin-4-yl)-4-fluoro-phenyl]-amide]"
6,2.14,"CC[C@@]1(c2cc(NC(=O)c3ccn(C)n3)ccc2F)CCSC(N)=N1 [Example 17, 1-Methyl-1H-pyrazole-3-carboxylic acid [3-((S)-2-amino-4-ethyl-5,6-dihydro-4H-[1,3]thiazin-4-yl)-4-fluoro-phenyl]-amide]"
7,41,"CC[C@@]1(c2cc(NC(=O)c3cc(Cl)ccn3)ccc2F)CCSC(N)=N1 [Example 9, 4-Chloro-pyridine-2-carboxylic acid [3-((S)-2-amino-4-ethyl-5,6-dihydro-4H-[1,3]thiazin-4-yl)-4-fluoro-phenyl]-amide]"
8,9.1,"CC[C@@]1(c2cc(NC(=O)c3cc4ccccc4cn3)ccc2F)CCSC(N)=N1 [Example 13, Isoquinoline-3-carboxylic acid [3-((S)-2-amino-4-ethyl-5,6-dihydro-4H-[1,3]thiazin-4-yl)-4-fluoro-phenyl]-amide]"
